Laboratory results from ChEMBL document CHEMBL5352480, “Discovery of potent 1,1-diarylthiogalactoside glycomimetic inhibitors of Pseudomonas aeruginosa LecA with antibiofilm properties” (Eur J Med Chem, 2023).
pKd: −log10 of the molar value.

Columns and labels:
[1] = target: T1, PA-I galactophilic lectin (Pseudomonas aeruginosa (strain ATCC 15692 / PAO1 / 1C / PRS 101 / LMG12228)) (UniProt Q05097); experiment: Binding affinity to Pseudomonas aeruginosa LecA expressed in Escherichia coli BL21 (DE3) cells assessed as gibbs free energy change by isothermal titration calorimetry
T1 sequence (whole entry): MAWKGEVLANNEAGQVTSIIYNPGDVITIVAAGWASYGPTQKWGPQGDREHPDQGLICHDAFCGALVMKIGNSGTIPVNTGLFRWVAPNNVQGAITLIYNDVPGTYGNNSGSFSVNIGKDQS

[2] = target: T1, PA-I galactophilic lectin (Pseudomonas aeruginosa (strain ATCC 15692 / PAO1 / 1C / PRS 101 / LMG12228)); experiment: Binding affinity to Pseudomonas aeruginosa LecA expressed in Escherichia coli BL21 (DE3) cells assessed as change in enthalpy by isothermal titration calorimetry
[3] = target: T1, PA-I galactophilic lectin (Pseudomonas aeruginosa (strain ATCC 15692 / PAO1 / 1C / PRS 101 / LMG12228)); experiment: Binding affinity to Pseudomonas aeruginosa LecA expressed in Escherichia coli BL21 (DE3) cells assessed as change in entropy by isothermal titration calorimetry
[4] = target: T2, PA-I galactophilic lectin (Pseudomonas aeruginosa (strain ATCC 15692 / PAO1 / 1C / PRS 101 / LMG12228), UniProt Q05097); experiment: Binding affinity to Pseudomonas aeruginosa LecA expressed in Escherichia coli BL21 (DE3) cells assessed as dissociation constant by isothermal titration calorimetry
T2 sequence (Q05097 whole entry): T1 sequence (whole entry)

[5] = target: T2, PA-I galactophilic lectin; experiment: Binding affinity to Pseudomonas aeruginosa LecA assessed as dissociation constant by isothermal titration calorimetry
MRC5 [6] = experiment: Cytotoxicity against human MRC5 cells assessed as cell viability at 2.5 mM measured after 24 hrs by MTT assay; conditions: mrc5, 24 h, 2500 µM
Pseudomonas aeruginosa [7] = experiment: Antibiofilm activity against Pseudomonas aeruginosa PA01 (CIP 104116) assessed as inhibition of biofilm formation at 0.08 to 5 mM measured after 2 to 24 hrs relative to control; type: functional; parameters: scale not given: the % may be the effect or the level left; conditions: dose 0.08-5 mM, time 2-24 hrs
MRC5 [8] = experiment: Cytotoxicity against human MRC5 cells assessed as reduction in cell viability at 1.25 mM measured after 24 hrs by MTT assay; type: toxicity, cell-based; conditions: mrc5, 24 h, 1250 µM
MRC5 [9] = experiment: Cytotoxicity against human MRC5 cells assessed as cell viability at 5 mM measured after 24 hrs by MTT assay; conditions: mrc5, 24 h, 5000 µM
Pseudomonas aeruginosa [10] = experiment: Antibiofilm activity against Pseudomonas aeruginosa PA01 (CIP 104116) assessed as inhibition of biofilm formation measured after 2 to 24 hrs; type: functional, organism-based; conditions: dose 0.08-5 mM, time 2-24 hrs
Pseudomonas aeruginosa [11] = experiment: Bactericidal activity against Pseudomonas aeruginosa PAO1; type: functional
MRC5 [12] = experiment: Cytotoxicity against human MRC5 cells assessed as reduction in cell viability at upto 1.25 mM measured after 24 hrs by MTT assay; type: toxicity, cell-based; conditions: mrc5, 24 h, 1250 µM
Pseudomonas aeruginosa [13] = experiment: Antibacterial activity against Pseudomonas aeruginosa PAO1; type: functional
Pseudomonas aeruginosa [14] = experiment: Antibiofilm activity against Pseudomonas aeruginosa PA01 (CIP 104116) assessed as log reduction of biofilm formation at 5 mM measured after 2 to 24 hrs; type: functional; conditions: time 2-24 hrs
Pseudomonas aeruginosa [15] = experiment: Antibiofilm activity against Pseudomonas aeruginosa PA01 (CIP 104116) assessed as inhibition of biofilm formation at 5 mM measured after 2 to 24 hrs relative to control; type: functional; parameters: scale not given: the % may be the effect or the level left; conditions: time 2-24 hrs
[16] = target: T2, PA-I galactophilic lectin; experiment: Binding affinity to Pseudomonas aeruginosa LecA

Row | SMILES | deltaG [1] [kcal/mol] | deltaH [2] [kcal/mol] | TdeltaS [3] [kcal/mol] | pKd [4] | other results
1 | C=C(c1ccc(S[C@@H]2O[C@H](CO)[C@H](O)[C@H](O)[C@H]2O)cc1)c1ccc2ccccc2c1 | -6.88 | -8.41 | -1.53 | 5.05 | –
2 | Cc1cc(=O)oc2cc(S[C@@H]3O[C@H](CO)[C@H](O)[C@H](O)[C@H]3O)ccc12 | – | – | – | – | pKd [5]: 5.27
3 | OC[C@H]1O[C@@H](OCc2cn([C@@H]3[C@H](O)[C@@H](O)[C@H](c4cn([C@H]5[C@H](O)[C@@H](O)[C@H](n6cc([C@@H]7O[C@H](CO)[C@@H](n8cc(CO[C@@H]9O[C@H](CO)[C@H](O)[C@H](O)[C@H]9O)nn8)[C@H](O)[C@H]7O)nn6)O[C@@H]5CO)nn4)O[C@@H]3CO)nn2)[C@H](O)[C@@H](O)[C@H]1O | – | – | – | – | pKd [5]: 7.55
4 | C=C(c1cc(OC)c(OC)c(OC)c1)c1ccc(OC)c(S[C@@H]2O[C@H](CO)[C@H](O)[C@H](O)[C@H]2OC(C)=O)c1 | -7.03 | -8.6 | -1.58 | 5.16 | –
5 | CC(C)c1ccc(S[C@@H]2O[C@H](CO)[C@H](O)[C@H](O)[C@H]2O)cc1 | -7.65 | -11.9 | -4.28 | 5.61 | –
6 | COc1ccc(C(=O)c2cc(OC)c(OC)c(OC)c2)cc1S[C@@H]1O[C@H](CO)[C@H](O)[C@H](O)[C@H]1O | -8.17 | -13 | -4.85 | 5.99 | viability (MRC5 [6]): 41.1%; Activity (Pseudomonas aeruginosa [7]): 100%; viability (MRC5 [8]): 61.5%; viability (MRC5 [9]): 7.1%; Activity (Pseudomonas aeruginosa [10]): Dose-Dependent Effect; MBC (Pseudomonas aeruginosa [11]): > 5 mM; Activity (MRC5 [12]): Non-Toxic; MIC (Pseudomonas aeruginosa [13]): > 5 mM
7 | CC(C)(C)c1cc2c(OCc3cn(CCOCCOCCO[C@@H]4O[C@H](CO)[C@H](O)[C@H](O)[C@H]4O)nn3)c(c1)Cc1cc(C(C)(C)C)cc(c1OCc1cn(CCOCCOCCO[C@@H]3O[C@H](CO)[C@H](O)[C@H](O)[C@H]3O)nn1)Cc1cc(C(C)(C)C)cc(c1OCc1cn(CCOCCOCCO[C@@H]3O[C@H](CO)[C@H](O)[C@H](O)[C@H]3O)nn1)Cc1cc(C(C)(C)C)cc(c1OCc1cn(CCOCCOCCO[C@@H]3O[C@H](CO)[C@H](O)[C@H](O)[C@H]3O)nn1)C2 | – | – | – | – | pKd [16]: 6.75
8 | C=C(c1ccc(OC)cc1)c1ccc(S[C@@H]2O[C@H](CO)[C@H](O)[C@H](O)[C@H]2O)cc1 | -7.55 | -11.1 | -3.59 | 5.52 | –
9 | COc1ccc(S[C@@H]2O[C@H](CO)[C@H](O)[C@H](O)[C@H]2O)cc1 | -6.72 | -10.1 | -3.39 | 4.92 | –
10 | CC(C)S[C@@H]1O[C@H](CO)[C@H](O)[C@H](O)[C@H]1O | – | – | – | – | pKd [5]: 4.49
11 | O=Cc1ccc(S[C@@H]2O[C@H](CO)[C@H](O)[C@H](O)[C@H]2O)cc1 | -6.86 | -9.85 | -2.99 | 5.04 | –

More lines, main results first:

Row | deltaG [1] [kcal/mol] | deltaH [2] [kcal/mol] | TdeltaS [3] [kcal/mol] | pKd [4] | SMILES | other results
12 | -9.25 | -21.6 | -12.3 | 6.80 | C=C(c1ccc(S[C@@H]2O[C@H](CO)[C@H](O)[C@H](O)[C@H]2O)cc1)c1cccc(S[C@H]2O[C@@H](CO)[C@@H](O)[C@@H](O)[C@@H]2O)c1 (single isomer, unassigned) | viability (MRC5 [6]): 65.1%; viability (MRC5 [8]): 91.4%; log(activity) (Pseudomonas aeruginosa [14]): 1; viability (MRC5 [9]): 5.2%; Activity (Pseudomonas aeruginosa [15]): 90%; MBC (Pseudomonas aeruginosa [11]): > 5 mM; Activity (MRC5 [12]): Non-Toxic; MIC (Pseudomonas aeruginosa [13]): > 5 mM
13 | -6.96 | -11.1 | -4.13 | 5.09 | C=C(c1ccc(OC)cc1)c1cccc(S[C@@H]2O[C@H](CO)[C@H](O)[C@H](O)[C@H]2O)c1 | –
